The supplement of paper PMC10307832

Legend:
Test in all cases: relative viability (nuclei count vs DMSO), 5 days (fraction); higher = more cells survive
QS11 + AZD7762 = compound: C1CC2=C(C1)C=C(C=C2)OC3=NC(=C4C(=N3)N(C=N4)CC5=CC=C(C=C5)C6=CC=CC=C6)N[C@@H](CC7=CC=CC=C7)CO [QS11] + NC(=O)Nc1cc(-c2cccc(F)c2)sc1C(=O)N[C@H]1CCCNC1 [AZD7762] (partner 0.2 µM)
Procedure, shortened: (§1)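 Relative viability is defined as nuclei in treated wells over nuclei in vehicle wells. Duplicate plates were run and medians reported. Lung cancer cell lines in 1536-well plates were dosed by pin tool one day after seeding, with one drug or with a fixed anchor-drug dose plus five library-drug doses (not always all listed) in √10 steps, and nuclei were counted after 5 days.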

AZ628 + Bortezomib = compound: CC1=C(C=C(C=C1)NC(=O)C2=CC(=CC=C2)C(C)(C)C#N)NC3=CC4=C(C=C3)N=CN(C4=O)C [AZ628] + CC(C)C[C@H](NC(=O)[C@H](Cc1ccccc1)NC(=O)c1cnccn1)B(O)O [Bortezomib] (partner 0.002 µM)
Procedure, shortened: as §1

AZ628 + OSI-027 = compound: CC1=C(C=C(C=C1)NC(=O)C2=CC(=CC=C2)C(C)(C)C#N)NC3=CC4=C(C=C3)N=CN(C4=O)C [AZ628] + COc1cccc2cc(-c3nc([C@H]4CC[C@H](C(=O)O)CC4)n4ncnc(N)c34)[nH]c12 [OSI-027] (partner 0.5 µM)
Procedure, shortened: as §1

QS11 + Alpelisib = compound: C1CC2=C(C1)C=C(C=C2)OC3=NC(=C4C(=N3)N(C=N4)CC5=CC=C(C=C5)C6=CC=CC=C6)N[C@@H](CC7=CC=CC=C7)CO [QS11] + Cc1nc(NC(=O)N2CCC[C@H]2C(N)=O)sc1-c1ccnc(C(C)(C)C(F)(F)F)c1 [Alpelisib] (partner 2 µM)
Procedure, shortened: as §1

Question: Which relative viability (QS11 + AZD7762; first compound 0.253 µM) does the source give for LCLC-97TM1 here?
Answer: The relative viability was 0.192.

Question: What about the relative viability (QS11 + AZD7762; first compound 2.53 µM) of the same cell line?
Answer: The relative viability was 0.27.

Question: What about the relative viability (QS11 + AZD7762; first compound 8 µM) of the same cell line?
Answer: The relative viability was 0.418.

Question: And the relative viability (AZ628 + Bortezomib; first compound 0.08 µM)?
Answer: Its relative viability is 0.643.

Question: And the relative viability (AZ628 + Bortezomib; first compound 0.253 µM)?
Answer: The relative viability was 0.381.

Question: And the relative viability (AZ628 + Bortezomib; first compound 0.8 µM)?
Answer: Its relative viability is 0.199.

Question: And the relative viability (AZ628 + Bortezomib; first compound 2.53 µM)?
Answer: Its relative viability is 0.522.

Question: What about the relative viability (AZ628 + Bortezomib; first compound 8 µM) of the same cell line?
Answer: Its relative viability is 0.108.

Question: And the relative viability (AZ628 + OSI-027; first compound 0.08 µM)?
Answer: The relative viability was 0.577.

Question: And the relative viability (AZ628 + OSI-027; first compound 0.253 µM)?
Answer: The relative viability was 0.328.

Question: And the relative viability (AZ628 + OSI-027; first compound 0.8 µM)?
Answer: Its relative viability is 0.315.

Question: And the relative viability (AZ628 + OSI-027; first compound 2.53 µM)?
Answer: The relative viability was 0.327.

Question: What about the relative viability (AZ628 + OSI-027; first compound 8 µM) of the same cell line?
Answer: The relative viability was 0.198.

Question: And the relative viability (QS11 + Alpelisib; first compound 0.08 µM)?
Answer: The relative viability was 0.225.

Question: What about the relative viability (QS11 + Alpelisib; first compound 0.253 µM) of the same cell line?
Answer: Its relative viability is 0.233.

Question: And the relative viability (QS11 + Alpelisib; first compound 0.8 µM)?
Answer: Its relative viability is 0.201.

Question: And the relative viability (QS11 + Alpelisib; first compound 2.53 µM)?
Answer: The relative viability was 0.323.

Question: What about the relative viability (QS11 + Alpelisib; first compound 8 µM) of the same cell line?
Answer: Its relative viability is 0.299.
